T1: DusA (Escherichia coli, UniProt P32695)
T1 construct: expression construct, tags and host not described
T1 sequence (P32695 1-345): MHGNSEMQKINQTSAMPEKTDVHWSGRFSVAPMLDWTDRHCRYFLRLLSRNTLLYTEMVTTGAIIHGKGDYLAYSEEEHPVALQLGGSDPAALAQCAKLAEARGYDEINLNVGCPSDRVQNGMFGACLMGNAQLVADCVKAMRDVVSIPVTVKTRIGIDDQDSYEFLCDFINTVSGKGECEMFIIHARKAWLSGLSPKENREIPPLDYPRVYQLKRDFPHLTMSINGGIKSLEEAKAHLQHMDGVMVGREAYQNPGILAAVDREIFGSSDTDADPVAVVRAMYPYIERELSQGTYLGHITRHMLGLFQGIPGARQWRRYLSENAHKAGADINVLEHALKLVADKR

T2: DusB (Escherichia coli, UniProt P0ABT5)
T2 construct: expression construct, tags and host not described
T2 sequence (P0ABT5 1-321): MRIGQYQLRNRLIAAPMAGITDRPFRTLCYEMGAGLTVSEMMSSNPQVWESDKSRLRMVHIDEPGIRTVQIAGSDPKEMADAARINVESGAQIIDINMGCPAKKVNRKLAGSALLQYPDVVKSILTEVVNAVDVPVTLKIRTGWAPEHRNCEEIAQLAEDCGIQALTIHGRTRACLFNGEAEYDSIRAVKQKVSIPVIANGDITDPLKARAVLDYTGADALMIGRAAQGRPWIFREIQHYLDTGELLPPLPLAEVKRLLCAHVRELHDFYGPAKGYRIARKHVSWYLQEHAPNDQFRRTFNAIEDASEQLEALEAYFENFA

T3: DusC (Escherichia coli, UniProt P33371)
T3 construct: expression construct, tags and host not described
T3 sequence (P33371 1-315): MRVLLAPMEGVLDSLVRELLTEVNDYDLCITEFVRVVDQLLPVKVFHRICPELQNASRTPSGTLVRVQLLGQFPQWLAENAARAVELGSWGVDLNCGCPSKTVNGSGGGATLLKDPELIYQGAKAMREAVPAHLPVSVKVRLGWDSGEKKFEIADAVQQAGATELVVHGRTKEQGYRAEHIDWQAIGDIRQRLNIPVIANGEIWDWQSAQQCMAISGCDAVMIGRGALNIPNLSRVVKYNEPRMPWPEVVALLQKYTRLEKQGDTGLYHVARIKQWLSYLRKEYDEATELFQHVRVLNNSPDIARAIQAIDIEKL

B1: DusA (Escherichia coli K-12) (protein)
chain: T1 sequence (P32695 1-345)
notes: expression construct, tags and host not described

Assays:
DusA = target: T1, DusA; assay: flavin bound to the purified protein; assay type: binding; settings: non-covalent; flavin named FMN elsewhere in the paper
DusB = target: T2, DusB; assay: flavin bound to the purified protein; assay type: binding; settings: non-covalent; flavin named FMN elsewhere in the paper
DusC = target: T3, DusC; assay: flavin bound to the purified protein; assay type: binding; settings: non-covalent; flavin named FMN elsewhere in the paper
[1] = substrate: NC(=O)C1=CN([C@@H]2O[C@H](COP(=O)(O)OP(=O)(O)OC[C@H]3O[C@@H](n4cnc5c(N)ncnc54)[C@H](OP(=O)(O)O)[C@@H]3O)[C@@H](O)[C@H]2O)C=CC1; assay: NADPH oxidase, spectrophotometric, steady state; assay type: biochemical, Escherichia coli; settings: air (O2) as final electron acceptor, 50 mM HEPES pH 7.5, 150 mM NaCl, 15% glycerol, no tRNA

Molecule	flavin bound to the purified protein (DusA)	flavin bound to the purified protein (DusB)	flavin bound to the purified protein (DusC)	Km [1] [µM]	kcat [1] [s⁻¹]
Cc1cc2nc3c(=O)[nH]c(=O)nc-3n(C[C@H](O)[C@H](O)[C@H](O)COP(=O)(O)O)c2cc1C [FMN]	exhibited non-covalently bound flavin, associated with the apoproteins	exhibited non-covalently bound flavin, associated with the apoproteins	exhibited non-covalently bound flavin, associated with the apoproteins	–	–
B1	–	–	–	17 ± 3	0.48 ± 0.072
